The values that follow are results of earlier work, collected in patent publication US7759361B2, “Azabicyclooctan-3-one derivatives and use thereof” (Aprea AB, priority 2004, dated 2010).

This data set deals with cells carrying mutant p53. Conditions: disclosed in WO 02/24692.

Molecules are shown by their SMILES.

For the compound `O=C1C2CCN(CC2)C1(CO)CO` [PRIMA-1, 2,2-bis(hydroxymethyl)-1-azabicyclo[2.2.2]octan-3-one], the induction of apoptosis entry was “able to induce apoptosis”.
